Experimental data published in ChEMBL document CHEMBL4811256, “Synthesis and evaluation of multi-target-directed ligands with BACE-1 inhibitory and Nrf2 agonist activities as potential agents against Alzheimer's disease” (Eur J Med Chem, 2021).
Activity calls are given as the source filed them. The calls are words filed in the database; no cut-off is given here.

How the values were obtained:
Beta-secretase 1 = Beta-secretase 1 (Homo sapiens, UniProt P56817); experiment: Inhibition of BACE-1 (unknown origin) using Mca-Ser-Glu-Val-Asn-Leu-Asp-Ala-Glu-Phe-Lys-Dnp-OH as substrate preincubated for 30 mins followed by substrate addition and measured after 1 hr by FRET assay
[1] = Glutathione peroxidase-like activity in pH 7.5 potassium phosphate buffer assessed as catalytic reduction of H2O2 by measuring initial velocity at 25 degreeC using GSH in presence of NADPH by UV absorbance analysis (reference value: 30.41+/- 2.06 microM/min); assay type: functional
PC-12 [2] = experiment: Cytoprotective activity against H2O2- induced cell death in rat PC-12 cells assessed as increase in viable cells pretreated for 12 hrs followed by H2O2 challenge by MTT assay; assay type: functional, cell-based; conditions: dose 2.5-10 µM
PC-12 [3] = experiment: Cytoprotective activity against H2O2- induced cell death in rat PC-12 cells assessed as decrease in LDH release pretreated for 12 hrs followed by H2O2 challenge by LDH assay; assay type: functional, cell-based; conditions: dose 2.5-10 µM
PC-12 [4] = experiment: Protection against 6-OHDA-induced ROS accumulation in rat PC-12 cells assessed as intracellular ROS level by measuring mean fluorescence intensity pretreated for 12 hrs followed by 6-OHDA challenge by DCFH-DA staining based flow cytometry; assay type: functional, cell-based; conditions: dose 2.5-10 µM
PC-12 [5] = experiment: Protection against H2O2-induced mitochondrial dysfunction in rat PC-12 cells assessed as change in mitochondrial membrane potential at 10 uM pretreated with compound for 12 hrs followed by H2O2 challenge by JC-1 staining based flow cytometry (reference value: 73 %); assay type: functional
PC-12 [6] = experiment: Protection against 6-OHDA-induced mitochondrial dysfunction in rat PC-12 cells assessed as change in mitochondrial membrane potential at 5 uM pretreated with compound for 12 hrs followed by 6-OHDA challenge by JC-1 staining based flow cytometry (reference value: 56 %); assay type: functional
PC-12 [7] = experiment: Protection against H2O2-induced apoptosis in rat PC-12 cells assessed as viable cells at 5 uM pretreated for 12 hrs followed by H2O2 challenge by annexin V FITC/propidium iodide staining based flow cytometry (reference value: 73.3 %); assay type: functional; conditions: read-out: Activity
PC-12 [8] = experiment: Protection against H2O2-induced apoptosis in rat PC-12 cells assessed as late apoptic cells at 5 uM pretreated for 12 hrs followed by H2O2 challenge by annexin V FITC/propidium iodide staining based flow cytometry (reference value: 20.8 %); assay type: functional
PC-12 [9] = experiment: Protection against H2O2-induced apoptosis in rat PC-12 cells assessed as necrotic cells at 10 uM pretreated for 12 hrs followed by H2O2 challenge by annexin V FITC/propidium iodide staining based flow cytometry (reference value: 3.7 %); assay type: functional
PC-12 [10] = experiment: Protection against 6-OHDA-induced apoptosis in rat PC-12 cells assessed as necrotic cells at 2.5 uM pretreated for 12 hrs followed by 6-OHDA challenge by annexin V FITC/propidium iodide staining based flow cytometry (reference value: 3.7 %); assay type: functional
PC-12 [11] = experiment: Protection against 6-OHDA-induced apoptosis in rat PC-12 cells assessed as early apoptotic cells at 5 uM pretreated for 12 hrs followed by 6-OHDA challenge by annexin V FITC/propidium iodide staining based flow cytometry (reference value: 2.4 %); assay type: functional
PC-12 [12] = experiment: Protection against 6-OHDA-induced apoptosis in rat PC-12 cells assessed as late apoptotic cells at 5 uM pretreated for 12 hrs followed by 6-OHDA challenge by annexin V FITC/propidium iodide staining based flow cytometry (reference value: 17.3 %); assay type: functional
PC-12 [13] = experiment: Protection against 6-OHDA-induced apoptosis in rat PC-12 cells assessed as viable cells at 10 uM pretreated for 12 hrs followed by 6-OHDA challenge by annexin V FITC/propidium iodide staining based flow cytometry (reference value: 76.7 %); assay type: functional; conditions: read-out: Activity
PC-12 [14] = experiment: Protection against 6-OHDA-induced apoptosis in rat PC-12 cells assessed as early apoptotic cells at 10 uM pretreated for 12 hrs followed by 6-OHDA challenge by annexin V FITC/propidium iodide staining based flow cytometry (reference value: 2.4 %); assay type: functional
PC-12 [15] = experiment: Cytoprotective activity against 6-OHDA-induced oxidative stress in rat PC-12 cells assessed as decrease in cell death at 10 uM pretreated for 12 hrs followed by 6-OHDA challenge by MTT assay; assay type: functional, cell-based
PC-12 [16] = experiment: Activation of Keap1-Nrf2-ARE pathway in rat PC-12 assessed as upregulation of TrxR1 protein expression at 10 uM measured after 6 to 24 hrs by Western blot analysis; conditions: filed as activator, time 6-24 hrs
PC-12 [17] = experiment: Activation of Keap1-Nrf2-ARE pathway in rat PC-12 assessed as induction of accumulation of Nrf2 in nucleus at 10 uM measured after 3 hrs by Western blot analysis; conditions: filed as activator
[18] = molecular target: T1, Nuclear factor erythroid 2-related factor 2 (Mus musculus) (UniProt Q60795); experiment: Activation of Nrf2 in mouse BV-2 cells assessed as decrease in LPS-induced NO production pretreated with compound for 2 hrs followed by LPS stimulation and further incubated for 18 hrs by Griess reagent based assay; assay type: cell-based; conditions: filed as activator, dose 10.0 µM, time 20.0 hrs
T1 sequence (whole entry): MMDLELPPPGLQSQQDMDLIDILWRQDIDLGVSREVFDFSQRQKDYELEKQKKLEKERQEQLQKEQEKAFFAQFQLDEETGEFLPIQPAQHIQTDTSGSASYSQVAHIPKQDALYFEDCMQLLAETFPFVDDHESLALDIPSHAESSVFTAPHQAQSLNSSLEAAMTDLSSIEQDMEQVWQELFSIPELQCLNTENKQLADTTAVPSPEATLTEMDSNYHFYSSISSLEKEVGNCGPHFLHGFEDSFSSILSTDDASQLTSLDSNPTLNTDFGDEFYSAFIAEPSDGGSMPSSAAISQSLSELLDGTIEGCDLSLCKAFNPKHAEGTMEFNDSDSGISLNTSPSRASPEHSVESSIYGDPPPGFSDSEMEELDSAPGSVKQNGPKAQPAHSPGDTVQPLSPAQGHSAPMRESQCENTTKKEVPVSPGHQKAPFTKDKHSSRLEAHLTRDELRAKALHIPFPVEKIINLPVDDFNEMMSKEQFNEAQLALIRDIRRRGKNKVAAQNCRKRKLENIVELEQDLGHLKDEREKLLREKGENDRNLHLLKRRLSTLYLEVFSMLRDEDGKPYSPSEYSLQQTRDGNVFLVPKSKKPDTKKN

[19] = molecular target: T1, Nuclear factor erythroid 2-related factor 2 (Mus musculus); experiment: Activation of Nrf2 in mouse BV-2 cells assessed as upregulation of Nrf2 protein expression after 24 hrs by Western blot analysis; assay type: cell-based; conditions: filed as activator, dose 2.5-10 µM
[20] = molecular target: T1, Nuclear factor erythroid 2-related factor 2 (Mus musculus); experiment: Activation of Nrf2 in mouse BV-2 cells assessed as upregulation of GCLC protein expression after 24 hrs by Western blot analysis; assay type: cell-based; conditions: filed as activator, dose 2.5-10 µM
BV-2 [21] = experiment: Antiinflammatory activity in mouse BV-2 cells transfected with Nrf2 siRNA assessed as inhibition of LPS-induced IL-6 production at 10 uM pretreated with compound for 2 hrs followed by LPS stimulation and further incubated for 18 hrs; assay type: functional, cell-based; conditions: time 20.0 hrs
BV-2 [22] = experiment: Antiinflammatory activity in mouse BV-2 cells transfected with Nrf2 siRNA assessed as inhibition of LPS-induced NO production at 10 uM pretreated with compound for 2 hrs followed by LPS stimulation and further incubated for 18 hrs; assay type: functional, cell-based; conditions: time 20.0 hrs
in vitro = conditions: PAMPA

Sequence of Beta-secretase 1 (P56817 whole entry): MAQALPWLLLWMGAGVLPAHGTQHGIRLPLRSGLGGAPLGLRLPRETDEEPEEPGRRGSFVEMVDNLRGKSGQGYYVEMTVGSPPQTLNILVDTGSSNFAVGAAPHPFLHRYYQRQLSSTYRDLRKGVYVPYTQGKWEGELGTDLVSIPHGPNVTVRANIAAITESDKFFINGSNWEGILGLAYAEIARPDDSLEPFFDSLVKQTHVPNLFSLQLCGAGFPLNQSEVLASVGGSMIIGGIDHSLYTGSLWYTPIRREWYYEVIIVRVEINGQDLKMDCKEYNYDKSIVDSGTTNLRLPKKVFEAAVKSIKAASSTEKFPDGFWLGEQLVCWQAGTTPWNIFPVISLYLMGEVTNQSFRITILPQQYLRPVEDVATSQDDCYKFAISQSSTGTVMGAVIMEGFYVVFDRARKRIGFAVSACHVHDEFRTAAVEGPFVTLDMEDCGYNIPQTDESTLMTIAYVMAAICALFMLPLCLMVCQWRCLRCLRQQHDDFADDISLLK

In the case of `CN1C(N)=N[C@](C)(c2cc(-n3[se]c4cc(F)ccc4c3=O)ccc2F)CS1(=O)=O`, the IC50 (Beta-secretase 1) is reported as 1060 nM, the V0 [1] is reported as 183 µM/min and the Activity (PC-12 [2]) is reported as “Dose-Dependent Effect”. For the same compound, the Activity (PC-12 [3]) was “Dose-Dependent Effect”, the Activity (PC-12 [4]) was “Dose-Dependent Effect” and the Activity (PC-12 [5]) was 89.1%. For the same compound, the Activity (PC-12 [6]) was 64.8%, the viability at 5 µM (PC-12 [7]) was 89% and the Activity (PC-12 [8]) was 8.1%. It also gave an Activity (PC-12 [9]) of 0.6%, an Activity (PC-12 [10]) of 3.3% and an Activity (PC-12 [11]) of 2.5%. The Activity (PC-12 [12]) was 11.8%, the viability at 10 µM (PC-12 [13]) was 90.5% and the Activity (PC-12 [14]) was 1.4%. For the same compound, the Activity (PC-12 [15]) was “Active”, the Activity (PC-12 [16]) was “Active” and the Activity (PC-12 [17]) was “Active”. For the same compound, the Activity [18] was “Active”, the Activity [19] was “Dose-Dependent Effect” and the Activity [20] was “Dose-Dependent Effect”. The Activity (BV-2 [21]) was “inactive”, the Activity (BV-2 [22]) was “inactive” and the Papp at 16 h (in vitro) was 16 ×10⁻⁶ cm/s.
